From article PMC2707266 (2009) come the findings set out here.

Holding throughout (assay type): biochemical
The target of assay [1] is T1, KPC-2 (Klebsiella pneumoniae, UniProt Q9F663). Description: nitrocefin hydrolysis at […] nm, […] min pre-incubation.
Assay [2] has as its target T1, KPC-2. In words: steady-state kinetics of hydrolysis at […] nm.
Assay [3] deals with T1, KPC-2. Description: nitrocefin hydrolysis at […] nm, […] min pre-incubation. The source holds these as a separate data set.

Read-outs that look alike come from different tables or passages of the source.

T1 sequence (Q9F663 25-293, looked up): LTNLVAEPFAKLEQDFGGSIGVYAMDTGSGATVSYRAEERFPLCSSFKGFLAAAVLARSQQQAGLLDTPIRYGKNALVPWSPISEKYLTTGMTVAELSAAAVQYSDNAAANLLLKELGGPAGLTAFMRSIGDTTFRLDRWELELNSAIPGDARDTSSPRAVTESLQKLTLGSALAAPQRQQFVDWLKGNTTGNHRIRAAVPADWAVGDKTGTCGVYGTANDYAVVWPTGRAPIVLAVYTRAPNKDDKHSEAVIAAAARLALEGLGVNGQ

A word on the IC50: it is the point on the concentration scale where inhibition reaches its midpoint. On KPC-2 [1], `O=C(O)[C@H]1/C(=C/CO)O[C@@H]2CC(=O)N21` [clavulanate] came in with an IC50 of 6.5 µM.

Broadly, the Km is the concentration of substrate that gives half-maximal velocity. On to `O=C(Cc1cccs1)N[C@@H]1C(=O)N2C(C(=O)O)=C(/C=C/c3ccc([N+](=O)[O-])cc3[N+](=O)[O-])CS[C@H]12` [nitrocefin], for which the Michaelis-Menten constant (Km) on KPC-2 [2] was found to be 52 µM. `C[C@]1(Cn2ccnn2)[C@H](C(=O)O)N2C(=O)C[C@H]2S1(=O)=O` [tazobactam]: at KPC-2 [3], the IC50 was 9.2 µM.
